Reference: patent publication US20250235453A1, “TRIAZOLOPYRIDAZINE COMPOUNDS USEFUL AS RAC1 INHIBITORS” (Revere Pharmaceuticals, priority 2021, published 2025)
Read-outs that look alike come from different tables or passages of the source.

Legend:
Rac1 = target: T1, Rac1 (Homo sapiens, UniProt P63000); assay: Rac Activation AlphaScreen Assay (Rac1 AS); type: biochemical
T1 construct: His (N)
Description: The IC50 values reported in Tables 1-6 were obtained from the Rae Activation AlphaScreen Assay (Rac1 AS) assay described in subsection 2 under the section entitled “In Vitro Assays”. “†” represents an IC50 of greater than 100 uM; “††” represents an IC50 of greater than 10 uM and less than 50 uM; and “†††” represents an IC50 of less than 10 uM. “POC” means percent of control. […] Lower POC values reflect greater inhibition. “NT” means not tested.
2. Rac Activation AlphaScreen Assay (Rac1 AS)
AlphaScreen® assays were performed in 96-well microplates in a final reaction volume of 60 μL. Recombinant His-Rac1, recombinant GST-PBD (PAK Binding Domain), donor and acceptor beads (PerkinElmer), and inhibitors were incubated in exchange buffer (20 mM Tris pH 7.5, 50 mM NaCl, 1 mM MgCl2, 1 mM EDTA, 500 nM GTPyS (guanosine 5′-[Y-thio]triphosphate)) at 37° C. Readings were performed on a Tecan M1000 pro microplate reader after 1 hour. Data was analyzed using the GraphPad Prism software (GraphPad Software, Inc.), and IC50 (dose leading to 50% disruption of complex) was calculated from the dose-response curves.

[1] = oral administration in mice; cited from earlier work
[2] = target: T2, Rac-GEF Vav2 with nucleotide-free Rac1 (G15A) (Homo sapiens, UniProt P63000, G15A); settings: MDA-MB-435 breast cancer cells; <5 mM; cited from earlier work
T2 construct: host or cells: MDA-MB-435

[3] = target: T3, Rac-GEF Tiam-1 with Rac1 (G15A) (Homo sapiens, UniProt P63000, G15A); settings: MDA-MB-435 cells; similar concentrations (<5 mM); cited from earlier work
T3 construct: host or cells: MDA-MB-435

Rac = target: T4, Rac (Homo sapiens, UniProt P63000); settings: relative to NSC23766; cited from earlier work
T4 construct: host or cells: fibroblasts

[4] = system: animal models of estrogen positive and HER2 positive breast cancer, prostate cancer, melanoma and colorectal cancer; settings: single agent and in combination with standard of care; cited from earlier work
[5] = in vivo, cited from earlier work
[6] = Rac1 AS assay, dose leading to 50% disruption of complex, read-out: IC50

IC50 (Rac1; [6]) [µM]	Structure (SMILES)	also measured
< 10	Cc1ccc(-c2nnc3ccc(-c4cccc(NC(=O)c5ccc(F)c(Br)c5)c4)nn23)o1 [Compound 94]	
< 10	COc1cccc(C(=O)Nc2cccc(-c3ccc4nnc(-c5cncs5)n4n3)c2)c1 [Compound 98]	
< 10	O=C(Nc1cccc(-c2ccc3nnc(-c4cncs4)n3n2)c1)c1ccc(F)cc1 [Compound 99, 4-fluoro-N-(3-(3-(thiazol-5-yl)-[1,2,4]triazolo[4,3-b]pyridazin-6-yl)phenyl)benzamide]	
< 10	Cc1ccc(-c2nnc3ccc(-c4cccc(NS(=O)(=O)Cc5ccc(F)cc5F)c4)nn23)o1 [Compound 106]	
< 10	COc1ccc(CS(=O)(=O)Nc2cccc(-c3ccc4nnc(-c5cccnc5)n4n3)c2)cc1 [Compound 107]	
< 10	COc1ccc(CS(=O)(=O)Nc2cccc(-c3ccc4nnc(-c5cccnc5)n4n3)c2)c(OC)c1 [Compound 108]	
< 10	Cc1ccc(-c2nnc3ccc(-c4cccc(NC(=O)c5cnco5)c4)nn23)o1 [Compound 109]	
< 10	Cc1ccc(-c2nnc3ccc(-c4cccc(NC(=O)c5ccc(F)c(CCC(C)C)c5)c4)nn23)o1 [Compound 110]	
< 10	Cc1ccc(-c2nnc3ccc(-c4cccc(NC(=O)c5cccc(SC(C)(C)C)c5)c4)nn23)o1 [Compound 111]	
	CCn1c2ccccc2c2cc(Nc3ccnc(NCCCN4CCOCC4)n3)ccc21 [EHop-016]	systemic exposure [1]: low systemic exposure; association of the Rac-GEF Vav2 with nucleotide-free Rac1 (G15A) [2]: inhibits; IC50 (Rac1; AlphaLisa assay, read-out: IC50 inhibitory concentration versus wild type Rac1): ~10 µM; association of the Rac-GEF Tiam-1 with Rac1 (G15A) [3]: does not affect; more efficient than NSC23766 as an inhibitor of Rac activity (Rac): 100 fold
	FC(F)(F)c1ccc2c(SCCCCCCn3cnc(CN4CCOCC4)c3)ccnc2c1 [GYS32661]	activity against animal models of cancer [4]: very good activity; oral bioavailability ([5]; po): not orally bioavailable; plasma half-life [5]: relatively short
